ChEMBL document CHEMBL4387701, “H2depda: An acyclic adjuvant potentiates meropenem activity in vitro against metallo-β-lactamase-producing enterobacterales” (Eur J Med Chem, 2019)
In brackets after ≈: the same amount, converted by molar mass. Values belong to the compound of their own block, whether it stands above or below them. Activity calls are given as the source filed them. The calls are words filed in the database; no cut-off is given here.

Experiments:
[1] = tested on: Escherichia coli; assay: Inhibition of NDM1 in Escherichia coli isolate 8 assessed as potentiation of meropenem-induced antibacterial activity by measuring meropenem MIC after 24 hrs by broth microdilution assay (reference value: 320 ug/ml)
[2] = tested on: Enterobacter cloacae; assay: Inhibition of NDM1 in Enterobacter cloacae isolate 6 assessed as potentiation of meropenem-induced antibacterial activity by measuring meropenem MIC after 24 hrs by broth microdilution assay (reference value: 320 ug/ml)
[3] = tested on: Enterobacter cloacae; assay: Inhibition of NDM1 in Enterobacter cloacae isolate 5 assessed as potentiation of meropenem-induced antibacterial activity by measuring meropenem MIC after 24 hrs by broth microdilution assay (reference value: 640 ug/ml)
[4] = tested on: Enterobacter cloacae; assay: Inhibition of NDM1 in Enterobacter cloacae isolate 4 assessed as potentiation of meropenem-induced antibacterial activity by measuring meropenem MIC after 24 hrs by broth microdilution assay (reference value: 640 ug/ml)
[5] = tested on: Escherichia coli; assay: Inhibition of NDM-7 in Escherichia coli isolate 2 assessed as potentiation of meropenem-induced antibacterial activity by measuring meropenem MIC after 24 hrs by broth microdilution assay (reference value: 640 ug/ml)
[6] = target: T1, Metallo-beta-lactamase NDM-4 (Escherichia coli) (UniProt H6WZS9); assay: Inhibition of NDM4 in Escherichia coli isolate 3 assessed as potentiation of meropenem-induced antibacterial activity by measuring meropenem MIC after 24 hrs by broth microdilution assay (reference value: 1280 ug/ml)
T1 sequence (whole entry): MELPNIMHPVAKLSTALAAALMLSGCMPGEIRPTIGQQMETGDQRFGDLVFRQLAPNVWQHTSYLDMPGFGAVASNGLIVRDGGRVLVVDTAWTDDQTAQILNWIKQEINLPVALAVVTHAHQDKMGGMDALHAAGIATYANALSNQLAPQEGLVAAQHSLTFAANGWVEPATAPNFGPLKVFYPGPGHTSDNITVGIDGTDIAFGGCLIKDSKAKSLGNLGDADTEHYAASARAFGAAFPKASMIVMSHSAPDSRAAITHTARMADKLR

[7] = tested on: Escherichia coli; assay: Inhibition of NDM1 in Escherichia coli isolate 1 assessed as potentiation of meropenem-induced antibacterial activity by measuring meropenem MIC after 24 hrs by broth microdilution assay (reference value: 1280 ug/ml)
[8] = tested on: Klebsiella pneumoniae; assay: Inhibition of IMP4 in Klebsiella pneumoniae isolate 10 assessed as potentiation of meropenem-induced antibacterial activity by measuring meropenem MIC after 24 hrs by broth microdilution method (reference value: 64 ug/ml)
[9] = tested on: Escherichia coli; assay: Inhibition of IMP4 in Escherichia coli isolate 11 assessed as potentiation of meropenem-induced antibacterial activity by measuring meropenem MIC after 24 hrs by broth microdilution method (reference value: 32 ug/ml)
[10] = tested on: Klebsiella pneumoniae; assay: Inhibition of IMP4 in Klebsiella pneumoniae isolate 12 assessed as potentiation of meropenem-induced antibacterial activity by measuring meropenem MIC after 24 hrs by broth microdilution method (reference value: 16 ug/ml)
[11] = tested on: Klebsiella pneumoniae; assay: Inhibition of IMP4 in Klebsiella pneumoniae isolate 13 assessed as potentiation of meropenem-induced antibacterial activity by measuring meropenem MIC after 24 hrs by broth microdilution method (reference value: 320 ug/ml)
[12] = tested on: Escherichia coli; assay: Inhibition of IMP4 in Escherichia coli isolate 14 assessed as potentiation of meropenem-induced antibacterial activity by measuring meropenem MIC after 24 hrs by broth microdilution method (reference value: 16 ug/ml)
[13] = tested on: Enterobacter cloacae; assay: Inhibition of IMP4 in Enterobacter cloacae isolate 15 assessed as potentiation of meropenem-induced antibacterial activity by measuring meropenem MIC after 24 hrs by broth microdilution method (reference value: 32 ug/ml)
[14] = tested on: Enterobacter cloacae; assay: Inhibition of IMP4 in Enterobacter cloacae isolate 16 assessed as potentiation of meropenem-induced antibacterial activity by measuring meropenem MIC after 24 hrs by broth microdilution method (reference value: 64 ug/ml)
[15] = tested on: Klebsiella pneumoniae; assay: Inhibition of IMP4 in Klebsiella pneumoniae isolate 17 assessed as potentiation of meropenem-induced antibacterial activity by measuring meropenem MIC after 24 hrs by broth microdilution method (reference value: 32 ug/ml)
[16] = tested on: Escherichia coli; assay: Inhibition of IMP4 in Escherichia coli isolate 18 assessed as potentiation of meropenem-induced antibacterial activity by measuring meropenem MIC after 24 hrs by broth microdilution method (reference value: 16 ug/ml)
[17] = tested on: Proteus mirabilis; assay: Inhibition of IMP4 in Proteus mirabilis isolate 19 assessed as potentiation of meropenem-induced antibacterial activity by measuring meropenem MIC after 24 hrs by broth microdilution method (reference value: 320 ug/ml)
[18] = target: T1, Metallo-beta-lactamase NDM-4 (Escherichia coli); assay: Inhibition of NDM4 in Escherichia coli isolate 3 assessed as potentiation of meropenem-induced bactericidal activity at 4 times MIC incubated for 24 hrs followed by replating on agar plates for 16 to 18 hrs and measured up to 24 hrs by time kill assay
[19] = tested on: Escherichia coli; assay: Effect on growth of NDM4-positive Escherichia coli assessed as bacterial growth at 64 ug/mL after 24 hrs by broth microdilution method relative to control; assay type: organism-based
[20] = target: T1, Metallo-beta-lactamase NDM-4 (Escherichia coli); assay: Inhibition of Escherichia coli NDM4 assessed as potentiation of meropenem-induced antibacterial activity by measuring reduction in bacterial growth at 64 ug/mL after 24 hrs by broth microdilution method relative to control
[21] = target: T1, Metallo-beta-lactamase NDM-4 (Escherichia coli); assay: Inhibition of Escherichia coli NDM4 assessed as potentiation of meropenem-induced antibacterial activity by measuring bacterial growth rate at 64 ug/mL after 24 hrs in presence of ZnCl2 by broth microdilution method relative to control
[22] = tested on: Escherichia coli; assay: Effect on growth of Escherichia coli isolate 1 after 24 hrs by broth microdilution assay; assay type: organism-based
[23] = tested on: Escherichia coli; assay: Effect on growth of Escherichia coli isolate 2 after 24 hrs by broth microdilution assay; assay type: organism-based
[24] = tested on: Escherichia coli; assay: Effect on growth of Escherichia coli isolate 3 after 24 hrs by broth microdilution assay; assay type: organism-based
[25] = tested on: Enterobacter cloacae; assay: Effect on growth of Enterobacter cloacae isolate 4 after 24 hrs by broth microdilution assay; assay type: organism-based
[26] = tested on: Enterobacter cloacae; assay: Effect on growth of Enterobacter cloacae isolate 5 after 24 hrs by broth microdilution assay; assay type: organism-based
[27] = tested on: Enterobacter cloacae; assay: Effect on growth of Enterobacter cloacae isolate 6 after 24 hrs by broth microdilution assay; assay type: organism-based
[28] = tested on: Citrobacter freundii; assay: Effect on growth of Citrobacter freundii isolate 7 after 24 hrs by broth microdilution assay; assay type: organism-based
[29] = tested on: Escherichia coli; assay: Effect on growth of Escherichia coli isolate 8 after 24 hrs by broth microdilution assay; assay type: organism-based
[30] = tested on: Escherichia coli; assay: Effect on growth of Escherichia coli isolate 9 after 24 hrs by broth microdilution assay; assay type: organism-based
[31] = tested on: Klebsiella pneumoniae; assay: Effect on growth of Klebsiella pneumoniae isolate 10 after 24 hrs by broth microdilution method; assay type: organism-based
[32] = tested on: Escherichia coli; assay: Effect on growth of Escherichia coli isolate 11 after 24 hrs by broth microdilution method; assay type: organism-based
[33] = tested on: Klebsiella pneumoniae; assay: Effect on growth of Klebsiella pneumoniae isolate 12 after 24 hrs by broth microdilution method; assay type: organism-based
[34] = tested on: Klebsiella pneumoniae; assay: Effect on growth of Klebsiella pneumoniae isolate 13 after 24 hrs by broth microdilution method; assay type: organism-based
[35] = tested on: Escherichia coli; assay: Effect on growth of Escherichia coli isolate 14 after 24 hrs by broth microdilution method; assay type: organism-based
[36] = tested on: Enterobacter cloacae; assay: Effect on growth of Enterobacter cloacae isolate 15 after 24 hrs by broth microdilution method; assay type: organism-based
[37] = tested on: Enterobacter cloacae; assay: Effect on growth of Enterobacter cloacae isolate 16 after 24 hrs by broth microdilution method; assay type: organism-based
[38] = tested on: Klebsiella pneumoniae; assay: Effect on growth of Klebsiella pneumoniae isolate 17 after 24 hrs by broth microdilution method; assay type: organism-based
[39] = tested on: Escherichia coli; assay: Effect on growth of Escherichia coli isolate 18 after 24 hrs by broth microdilution method; assay type: organism-based
[40] = tested on: Proteus mirabilis; assay: Effect on growth of Proteus mirabilis isolate 19 after 24 hrs by broth microdilution method; assay type: organism-based
[41] = tested on: Escherichia coli ATCC 25922; assay: Inhibition of IMP-4 in Escherichia coli ATCC 25922 assessed as potentiation of meropenem-induced antibacterial activity by measuring zone of inhibition by agar disk diffusion method
[42] = target: T1, Metallo-beta-lactamase NDM-4 (Escherichia coli); assay: Inhibition of NDM4 in Escherichia coli ATCC 25922 assessed as potentiation of meropenem-induced antibacterial activity by measuring zone of inhibition by agar disk diffusion method
[43] = Inhibition of Stenotrophomonas maltophilia NDM1 expressed in Escherichia coli BL21 (DE3) expressing measured after 15 minutes at interval of 60 secs
[44] = tested on: Escherichia coli; assay: Effect on growth of NDM4-positive Escherichia coli assessed as bacterial growth at 0.03125 ug/mL after 24 hrs by broth microdilution method relative to control; assay type: functional

- MIC [1]: 0.125 µg/mL
- MIC [2]: 0.0312 µg/mL
- MIC [3]: 0.25 µg/mL
- MIC [4]: 0.125 µg/mL
- MIC [5]: 0.25 µg/mL
- MIC [6]: 0.25 µg/mL
- MIC [7]: 0.0312 µg/mL
- MIC [8]: 4 µg/mL
- MIC [9]: 1 µg/mL
- MIC [10]: 1 µg/mL
- MIC [11]: 4 µg/mL
- MIC [12]: 4 µg/mL
- MIC [13]: 1 µg/mL
- MIC [14]: 2 µg/mL
- MIC [15]: 4 µg/mL
- MIC [16]: 2 µg/mL
- MIC [17]: 4 µg/mL
- Activity [19]: 95%
- inhibition [20]: Active
- inhibition [21]: 81%
- MIC [22]: 16 µg/mL (≈ 52.8 µM)
- MIC [23]: 16 µg/mL (≈ 52.8 µM)
- MIC [24]: 16 µg/mL (≈ 52.8 µM)
- MIC [25]: 16 µg/mL (≈ 52.8 µM)
- MIC [26]: 16 µg/mL (≈ 52.8 µM)
- MIC [27]: 16 µg/mL (≈ 52.8 µM)
- MIC [28]: 16 µg/mL (≈ 52.8 µM)
- MIC [29]: 16 µg/mL (≈ 52.8 µM)
- MIC [30]: 16 µg/mL (≈ 52.8 µM)
- MIC [31]: 16 µg/mL (≈ 52.8 µM)
- MIC [32]: 16 µg/mL (≈ 52.8 µM)
- MIC [33]: 16 µg/mL (≈ 52.8 µM)
- MIC [34]: 16 µg/mL (≈ 52.8 µM)
- MIC [35]: 16 µg/mL (≈ 52.8 µM)
- MIC [36]: 16 µg/mL (≈ 52.8 µM)
- MIC [37]: 16 µg/mL (≈ 52.8 µM)
- MIC [38]: 16 µg/mL (≈ 52.8 µM)
- MIC [39]: 16 µg/mL (≈ 52.8 µM)
- MIC [40]: 16 µg/mL (≈ 52.8 µM)
Compound: O=C(O)CN1CCN(CC(=O)O)CCN(CC(=O)O)CC1
- inhibition [18]: Active

- inhibition zone (IZ) [41]: 13.9 mm
- inhibition zone (IZ) [42]: 18.2 mm
- IC50 [43]: 8.47 µM
Compound: O=C(O)CN(CCN(CC(=O)O)CC(=O)O)CC(=O)O [EDETIC ACID]

Compound: C[C@@H](O)[C@H]1C(=O)N2C(C(=O)O)=C(S[C@@H]3CN[C@H](C(=O)N(C)C)C3)[C@H](C)[C@H]12 [MEROPENEM]
- Activity [44]: 95%
